Results as given in patent US20220313622A1, “PHYTOCANNABINOIDS FOR PREVENTING OR TREATING NON-ALCOHOLIC FATTY LIVER DISEASE, DYSLIPIDEMIA, AND TYPE 2 DIABETES” (YISSUM RESEARCH DEVELOPMENT COMPANY OF THE HEBREW …, priority 2019, published 2022).

What was measured:
[1] = system: high-fat diet-induced obese mice; assay: Hepatic steatosis in high-fat diet-induced obese mice; format: in vivo, mouse; conditions: 28 days ip, CBG 25 mg/kg/day; for HFD-induced hepatic steatosis (liver triglyceride levels, fat vacuoles and ballooning in hepatocytes): CBD 10 mg/kg/day, alone or combined, FIGS. 5A, B
Procedure: (§1) Next, the inventors tested whether the isolated and combined effect of phytocannabinoids has the ability to reverse fatty liver (hepatic steatosis) and improve metabolism in high-fat diet-induced obese mouse. Briefly, six weeks old, male C57Bl/6J mice were fed ad libitum with a high-fat diet (HFD; D12492; 60% of calories from fat, 20% from protein, and 20% from carbohydrates; Research Diets) or a mouse standard diet (STD; NIH no. 31 rodent diet) for 14 weeks. Then, the mice were treated for 28 days with CBD (10 mg/kg/day, ip), CBG (25 mg/kg/day, ip), CBD+CBG (10 mg/kg/day+25 mg/kg/day, ip respectively) or vehicle (EtOH:cremophor:saline; 1:1:18). The mouse groups were labeled as defined here: mice on a STD treated with vehicle (STD-Veh), mice on a HFD treated with vehicle (HFD-Veh), mice on a HFD treated with CBD (HFD-CBD), mice on a HFD treated with CBG (HFD-CBG), and mice on a HFD treated with CBD+CBG (HFD-CBD+CBG).
Hepatic steatosis (Fatty liver) was measured by (i) quantifying the amount of triglycerides and cholesterol in the liver by using a specific lipid extraction method followed by colorimetric chemical analyses using the Cobas C111 Chemistry Analyzer (Roche, Germany), and (ii) evaluating the reversal of fatty liver by histology. Briefly, paraffin-embedded liver sections (5 tiM) were be used to evaluate hepatic morphology (using H & E staining).

[2] = system: high-fat diet-induced obese mice; assay: Glucose and insulin homeostasis in high-fat diet-induced obese mice; format: in vivo, mouse; conditions: 28 days ip, CBG 25 mg/kg/day; for HFD-induced hyperglycemia (fasting blood glucose levels) / glucose tolerance (intraperitoneal glucose tolerance test) / serum insulin levels (hyperinsulinemia): CBD 10 mg/kg/day; for HFD-induced hyperglycemia (fasting blood glucose levels) / glucose tolerance (intraperitoneal glucose tolerance test): alone or combined; for HFD-induced hyperglycemia (fasting blood glucose levels): FIG. 6A; for glucose tolerance (intraperitoneal glucose tolerance test): FIG. 6B, C; for serum insulin levels (hyperinsulinemia): FIG. 7A
Procedure: as §1
Glucose and insulin homeostasis was assessed by (i) measuring fasting blood glucose (Elite glucometer, Bayer, Germany) and serum insulin (Ultra-Sensitive Mouse Insulin ELISA kit, EMD Millipore, MA) levels, (ii) evaluating Homeostatic Model Assessment for Insulin Resistance (HOMA-IR), and (iii) performing intraperitoneal glucose tolerance test.

[3] = system: mice; conditions: cited from earlier work
[4] = system: high-fat diet-induced obese mice; assay: Lipid balance (circulating triglycerides and cholesterol) in high-fat diet-induced obese mice; format: in vivo, mouse; conditions: 28 days ip; for serum triglycerides: CBD 10 mg/kg/day, FIG. 8A
Procedure: as §1
Lipid balance was assessed by evaluating the levels of low-density lipoprotein (LDL)-cholesterol, total cholesterol and triglycerides by using Cobas C111 Chemistry Analyzer (Roche, Germany).

[5] = system: rats on high-fat diets; conditions: cited from earlier work
[6] = system: human hepatoma HepG2 cells; assay: Oleate:Palmitate-induced lipid accumulation in hepatocytes (Nile-Red); format: cell-based; conditions: CBD 20 μM; 0.3 mM oleate:palmitate 2:1; 24 hr; FIG. 1
Procedure: To test whether CBG and/or CBD have the ability to reduce lipid accumulation in hepatocytes, we have utilized an in vitro model of fat accumulation in hepatocytes. Briefly, human hepatoma HepG2 cells were maintained at 37° C. in 5% CO2 in DMEM medium supplemented with 10% FCS, 2 mM 1-glutamine, 1 mM sodium pyruvate, 100 U/mL penicillin and […] streptomycin. Free fatty acids (2:1, molar ratio, oleic and palmitic acids) were mixed with bovine serum albumin (BSA). Cells were incubated with fatty acid-BSA complex in FCS-free culture medium at 0.3 mM final concentration of fatty acid and 1% of BSA. Control cell cultures were incubated with medium containing the vehicle. Compounds were tested in a range of concentrations (as detailed in each figure) in the presence/absence of fatty acids. The synergistic effect between two compounds was also tested once validating their individual effect. After 24 hr of incubation with the compounds, the cells were washed, incubated with 1 μg/mL mixture of Nile-Red/Hoechst solution for 15 mins at 37° C. protected from light. Fluorescence was measured by the Cytation-3 plate reader at ex:488 nm/em:550 for Nile-Red and Hoechst, respectively. Results were normalized to total protein levels of each well, and presented as a change in the accumulation of lipids in comparison with Vehicle-treated group.

[7] = system: high-fat diet-induced obese mice; assay: Antiobesity effect (fat and lean mass, EchoMRI) in high-fat diet-induced obese mice; format: in vivo, mouse; conditions: 28 days ip; CBG 25 mg/kg/day; FIG. 9B, C
Procedure: as §1
Antiobesity effect was assessed by measuring body weight. Total fat and lean masses were determined at the end of the treatment by EchoMRI-100 (Echo Medical Systems LLC, Houston Tex.).

[8] = system: obese mice; conditions: cited from earlier work

| Compound | HFD-induced hepatic steatosis (liver triglyceride levels, fat vacuoles and ballooning in hepatocytes) [1] | HFD-induced hyperglycemia (fasting blood glucose levels) [2] | glucose tolerance (intraperitoneal glucose tolerance test) [2] | serum insulin levels (hyperinsulinemia) [2] | development of alcohol-induced hepatosteatosis [3] | serum triglycerides ([4]; CBG 25 mg/kg/day) | weight gain [5] | lipid accumulation in hepatocytes [6] | liver cholesterol levels ([1]; FIG. 5C) | HOMA-IR ([2]; FIG. 7B) | total circulating cholesterol levels ([4]; CBG 25 mg/kg/day alone or with CBD 10 mg/kg/day, FIG. 8B) | LDL-Cholesterol levels ([4]; CBG 25 mg/kg/day, FIG. 8C) | fat mass [7] | lean mass [7] | insulin sensitivity [8] | triglyceride (TG) accumulation within the livers [8] |
| --- | --- | --- | --- | --- | --- | --- | --- | --- | --- | --- | --- | --- | --- | --- | --- | --- |
| C=C(C)[C@@H]1CCC(C)=C[C@H]1c1c(O)cc(CCCCC)cc1O [CBD, cannabidiol, reference compound] | significantly attenuated | significantly normalized | significant improvement | ineffective in reducing hyperinsulinemia | inhibits | Reduction | inhibits weight gain | significantly reduce lipid accumulation |  |  |  |  |  |  |  |  |
| CCCCCc1cc(O)c(C/C=C(\C)CCC=C(C)C)c(O)c1 [CBG, cannabigerol] | significantly attenuated | significantly normalized | significant improvement | trend toward reduction |  | Reduction |  |  | trend toward reduction | normalization | significantly reduced | significant reduction | significant reduction | increased |  |  |
| CCCc1cc(O)c2c(c1)OC(C)(C)[C@@H]1CCC(C)=C[C@@H]21 [THCV, Δ^9-tetrahydrocannabivarin] |  |  |  |  |  |  |  |  |  |  |  |  |  |  | improves insulin sensitivity | decreases |
